Test results reported in article PMC10142558, “In Silico and In Vivo Studies of a Tumor-Penetrating and Interfering Peptide with Antitumoral Effect on Xenograft Models of Breast Cancer” (Pharmaceutics, 2023).
Non-standard residues stand in square brackets, D forms with d. Residues, ends and D or L forms follow the SMILES beside them. Ahx = NCCCCCC(=O)O

Assay: Peptide stability in human serum
Assay type: in vitro ADME
Settings: human serum (Gibco), 37 °C, intact peptide by MALDI-TOF MS, triplicate, mean; for remaining at 6 h: 6 h incubation, read-out: percentage of peptide recovered in human serum, 6 h; for remaining at 24 h: 24 h incubation, read-out: percentage of peptide recovered in human serum, 24 h
Method: The peptide TT1-IP was incubated at 37 °C in […] of human serum (Gibco, Illikirch, France) for different periods of time. Samples were collected and peptide degradation stopped by freezing at −20 °C. The peptide was extracted from samples using the Proteo Miner Protein Enrichment System (Bio-Rad, Marnes-la-Coquette, France). The percentage of intact peptide was estimated by mass spectrometry (MS) using MALDI-TOFF with the protocol previously described (Bruker Autoflex II, Palaiseau, France) according to the manufacturer’s instructions. Measurements were performed in triplicate. MS data were analysed using the software Cliprot tools, Flex analysis, Bruker.
iRGD-IP and Lin TT1-IP were incubated in human serum at 37 °C for different periods of time. The integrity of the peptide was analyzed by mass spectrometry (MS). Every measurement was performed in triplicate. Each value is represented as the mean ± standard deviation (SD). Similar results were obtained in two independent experiments.

SMILES	remaining at 3 h (3 h incubation, read-out: percentage of peptide recovered in human serum, 3 h)	remaining at 6 h	remaining at 24 h	remaining at 1 h (1 h incubation, read-out: percentage of peptide recovered in human serum, 1 h)
CC[C@H](C)[C@H](NC(=O)[C@H](CCCNC(=N)N)NC(=O)[C@H](CCC(=O)O)NC(=O)[C@H](CCCNC(=N)N)NC(=O)[C@H](Cc1ccc(O)cc1)NC(=O)[C@H](CCCNC(=N)N)NC(=O)[C@@H](NC(=O)[C@H](CCCCN)NC(=O)[C@H](CC(C)C)NC(=O)[C@H](C)NC(=O)[C@@H](NC(=O)[C@H](CC(C)C)NC(=O)[C@H](CC(C)C)NC(=O)[C@@H](NC(=O)[C@@H](NC(=O)[C@@H](NC(=O)[C@@H](N)CCC(=O)O)[C@@H](C)O)C(C)C)[C@@H](C)O)C(C)C)C(C)C)C(=O)N[C@H](C(=O)NCCCCCC(=O)N[C@@H](C)C(=O)N[C@@H](CCCCN)C(=O)N[C@@H](CCCNC(=N)N)C(=O)NCC(=O)N[C@@H](C)C(=O)N[C@@H](CCCNC(=N)N)C(=O)N[C@@H](CO)C(=O)N[C@H](C(=O)N[C@@H](C)C(N)=O)[C@@H](C)O)[C@@H](C)O [Lin TT1-IP] (H-ETVTLLVALKVRYRERIT[Ahx]AKRGARSTA-NH2)	~80%	44%	~30%	–
CC[C@H](C)[C@H](NC(=O)[C@H](CCCNC(=N)N)NC(=O)[C@H](CCC(=O)O)NC(=O)[C@H](CCCNC(=N)N)NC(=O)[C@H](Cc1ccc(O)cc1)NC(=O)[C@H](CCCNC(=N)N)NC(=O)[C@@H](NC(=O)[C@H](CCCCN)NC(=O)[C@H](CC(C)C)NC(=O)[C@H](C)NC(=O)[C@@H](NC(=O)[C@H](CC(C)C)NC(=O)[C@H](CC(C)C)NC(=O)[C@@H](NC(=O)[C@@H](NC(=O)[C@@H](NC(=O)[C@@H](N)CCC(=O)O)[C@@H](C)O)C(C)C)[C@@H](C)O)C(C)C)C(C)C)C(=O)N[C@H](C(=O)NCCCCCC(=O)N[C@H]1CSSC[C@@H](C(N)=O)NC(=O)[C@H](CC(=O)O)NC(=O)[C@@H]2CCCN2C(=O)CNC(=O)[C@H](CCCCN)NC(=O)[C@H](CC(=O)O)NC(=O)CNC(=O)[C@H](CCCNC(=N)N)NC1=O)[C@@H](C)O [iRGD-IP]	–	77%	62%	91%
